From PubChem BioAssay (NCI)
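Each compound was tested at five concentrations against cells in 96-well plates for 48 hours. GI50 is the concentration that inhibits growth by half. The concentration for full growth arrest is given as TGI.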

How the values were obtained:
Test in all cases: NCI tumour cell line growth inhibition, 48 h
NCI-H23 lung = tested on: NCI-H23 lung
NCI-H460 lung = tested on: NCI-H460 lung
NCI-H522 lung = tested on: NCI-H522 lung
NCI/ADR-RES ovarian = tested on: NCI/ADR-RES ovarian
OVCAR-3 ovarian = tested on: OVCAR-3 ovarian
OVCAR-4 ovarian = tested on: OVCAR-4 ovarian
OVCAR-5 ovarian = tested on: OVCAR-5 ovarian
OVCAR-8 ovarian = tested on: OVCAR-8 ovarian
PC-3 prostate = tested on: PC-3 prostate
RPMI-8226 leukemia = tested on: RPMI-8226 leukemia
RXF 393 renal = tested on: RXF 393 renal
SF-268 CNS = tested on: SF-268 CNS
SF-295 CNS = tested on: SF-295 CNS
SF-539 CNS = tested on: SF-539 CNS
SK-MEL-2 melanoma = tested on: SK-MEL-2 melanoma
SK-MEL-28 melanoma = tested on: SK-MEL-28 melanoma
SK-MEL-5 melanoma = tested on: SK-MEL-5 melanoma
SK-OV-3 ovarian = tested on: SK-OV-3 ovarian
SN12C renal = tested on: SN12C renal
SNB-19 CNS = tested on: SNB-19 CNS
SNB-75 CNS = tested on: SNB-75 CNS
SR leukemia = tested on: SR leukemia
SW-620 colon = tested on: SW-620 colon
T-47D breast = tested on: T-47D breast
TK-10 renal = tested on: TK-10 renal
U251 CNS = tested on: U251 CNS
UACC-257 melanoma = tested on: UACC-257 melanoma
UACC-62 melanoma = tested on: UACC-62 melanoma
UO-31 renal = tested on: UO-31 renal

SMILES: CCOc1ccc(/C=C/C(=O)c2ccccc2)cc1
- GI50 (NCI-H23 lung): 16.9 µM
- TGI (NCI-H23 lung): 37.2 µM
- GI50 (NCI-H460 lung): 19.5 µM
- TGI (NCI-H460 lung): 41.6 µM
- GI50 (NCI-H522 lung): 15.4 µM
- TGI (NCI-H522 lung): 34.9 µM
- GI50 (NCI/ADR-RES ovarian): 18.3 µM
- TGI (NCI/ADR-RES ovarian): 56.3 µM
- GI50 (OVCAR-3 ovarian): 15.5 µM
- TGI (OVCAR-3 ovarian): 29.3 µM
- GI50 (OVCAR-4 ovarian): 21.5 µM
- TGI (OVCAR-4 ovarian): 60.5 µM
- GI50 (OVCAR-5 ovarian): 19.3 µM
- TGI (OVCAR-5 ovarian): 47.1 µM
- GI50 (OVCAR-8 ovarian): 14.8 µM
- TGI (OVCAR-8 ovarian): 34.6 µM
- GI50 (PC-3 prostate): 23.9 µM
- TGI (PC-3 prostate): 61.4 µM
- GI50 (RPMI-8226 leukemia): 3.95 µM
- TGI (RPMI-8226 leukemia): 20.5 µM
- GI50 (RXF 393 renal): 15.2 µM
- TGI (RXF 393 renal): 29.2 µM
- GI50 (SF-268 CNS): 18.7 µM
- TGI (SF-268 CNS): 36.9 µM
- GI50 (SF-295 CNS): 16.8 µM
- TGI (SF-295 CNS): 35 µM
- GI50 (SF-539 CNS): 19.4 µM
- TGI (SF-539 CNS): 45.5 µM
- GI50 (SK-MEL-2 melanoma): 20.4 µM
- TGI (SK-MEL-2 melanoma): 38.2 µM
- GI50 (SK-MEL-28 melanoma): 19.8 µM
- TGI (SK-MEL-28 melanoma): 39.6 µM
- GI50 (SK-MEL-5 melanoma): 17.1 µM
- TGI (SK-MEL-5 melanoma): 31.2 µM
- GI50 (SK-OV-3 ovarian): 21.5 µM
- TGI (SK-OV-3 ovarian): 56 µM
- GI50 (SN12C renal): 18.3 µM
- TGI (SN12C renal): 37 µM
- GI50 (SNB-19 CNS): 16.8 µM
- TGI (SNB-19 CNS): 34 µM
- GI50 (SNB-75 CNS): 22.4 µM
- TGI (SNB-75 CNS): 51.4 µM
- GI50 (SR leukemia): 8.5 µM
- TGI (SR leukemia): 43.5 µM
- GI50 (SW-620 colon): 7.73 µM
- TGI (SW-620 colon): 21.1 µM
- GI50 (T-47D breast): 14.2 µM
- TGI (T-47D breast): 48.7 µM
- GI50 (TK-10 renal): 17.9 µM
- TGI (TK-10 renal): 34.9 µM
- GI50 (U251 CNS): 7.19 µM
- TGI (U251 CNS): 20.7 µM
- GI50 (UACC-257 melanoma): 16.1 µM
- TGI (UACC-257 melanoma): 33.1 µM
- GI50 (UACC-62 melanoma): 17 µM
- TGI (UACC-62 melanoma): 36.5 µM
- GI50 (UO-31 renal): 14.1 µM
- TGI (UO-31 renal): 28 µM
